One data set deals with T1, P2Y4 receptor (Homo sapiens, UniProt P51582).
T1 construct: expressed in transfected cells; host or cells: 1321N1 human astrocytoma cells
Put plainly: Ca2+ mobilizing effect (fluo-4) in 1321N1 astrocytoma cells expressing P2Y4. It is filed as cell-based. The conditions noted are these: 1321N1 human astrocytoma cells expressing P2Y4. The procedure: (§1) Synthetic ligands were tested for activation of P2Y6 receptor by measuring receptor induced Ca^2+ changes with the fluorescent Ca^2+ indicator fluo-4. 1321N1 human astrocytoma cell lines either expressing P2Y2, P2Y4 or P2Y6 receptors were plated into 24-well plates. Two days after plating, fluorometric measurements were made and responses of cells to a serial dilution of ligands were determined P2Y6 receptor mediated Ca^2+ fluorescent change was determined by normalized accumulation of fluorescent change of 3 timepoints after ligand administration subtracted by value from ACSF control. Changes in fluorescent intensity were plotted corresponding to ligand concention in GraphPad. Dose-response curve and EC50 for each ligand was estimated using nonlinear curve fit and Sigmoidal dose-response analysis. […]
(§2) Synthetic ligands were tested for activation of P2Y6 receptor by measuring receptor induced Ca^2+ changes with the fluorescent Ca^2+ indicator fluo-4, and results are shown in FIG. 10(A)-(K). […] Two days after plating, fluorometric measurements were made and responses of cells to a serial dilution of ligands were determined P2Y6 receptor mediated Ca^2+ fluorescent change was determined by normalized accumulation of fluorescent change of 3 timepoints after ligand administration subtracted by value from ACSF control. […]

The next data set concerns the target T2, P2Y2 receptor (Homo sapiens, UniProt P41231).
T2 construct: expressed in transfected cells; host or cells: 1321N1 human astrocytoma cells
Put plainly: Ca2+ mobilizing effect (fluo-4) in 1321N1 astrocytoma cells expressing P2Y2. It is filed as cell-based. The conditions noted are these: 1321N1 human astrocytoma cells expressing P2Y2. How it is done: as §1, §2

The target in data set [1] is T3, P2Y6 receptor (Homo sapiens, UniProt Q15077). Briefly: Activation of P2Y6 receptor: receptor induced Ca2+ changes with fluo-4 in 1321N1 astrocytoma cells. Also on record: expressed in transfected cells; host or cells: 1321N1 human astrocytoma cells. It is filed as cell-based. How it is done:
as §1, §2

Data set [2] deals with PSAPP mice. Briefly: Postmortem immunohistochemistry of plaque load in cortex and hippocampus. It is filed as in vivo, mouse. The procedure:
Mice were perfused transcardially with 4% paraformaldehyde and 40 μm Coronal sections were collected. Sections were sequentially incubated in 0.3% H2O2 for 10 minutes, blocking solution for 2 hrs, blocking solution containing the primary antibody (rabbit anti-beta 1-42; rabbit anti-beta1-40, from Chemicon International and rat anti-CD45) for 48 hours at 4° C., and blocking solution containing biotinylated antibody or fluorescently-labeled antibody for 2 hours at room temperature. Sections were visualized in a bright field microscope or a confocal microscope, and the optical density was obtained using MetaMorph software.
After repeated imaging, brains were fixed and subjected to postmortem immunohistochemistry with amyloid beta specific antibodies β1-40 and β1-42 to evaluate the plaque load (area occupied by immunostaining of plaque) in cortex and hippocampus.
(§3) PSB0474 was systemically administered to PSAPP mice via intraperitoneal injection for 2, 4 and 6 consecutive days. In one group, prior to evaluation and following to administration for 6 consecutive days, treatment was suspended for two weeks (6+2 weeks group). Brains were then fixed and plaque load was evaluated by immunostaining with the amyloid beta specific antibodies: β1-40 and β1-42. Representative images of plaque load in cortex and hippocampus from animals that received injections of PSB0474 according to the foregoing injection schedules are shown in FIG. 5(A)-(D). […] Whereas, when administration of PSB0474 was stopped for 2 weeks following six consecutive days of treatment (denoted as the 6+2 weeks group), β1-40 staining rebounded; although to a level lower than observed in mice treated with saline as a vehicle control. FIGS. 6A and 6B depict the reduction in plaque load (%) the cortex and hippocampus, respectively, in PSAPP mice after treatment with 3-phenacyl-UDP for 2, 4, or 6 consecutive days, as assayed by staining with the β1-40 antibody. FIGS. 6C-6F depict data obtained following administration of different dosages of PSB0474.
To generate these graphs showing plaque load, mice were euthanized, brain sections cut and antibodies directed against Aβ42 were used to disclose Aβ plaques. Images were acquired digitally and an algorithm was applied to threshold the image so that plaques were isolated from the background. The algorithm then calculated the percent area of the field of view occupied by the plaques.
Brain samples were collected for Abeta analysis with immunostaining. Brains samples were collected after transcardial perfusion with phosphate buffer and 4% paraformaldehyde. Floating brain sections (40 µm) were collected using a microtome. Immunostaining for Aβ40 and Aβ42 were performed according to previously established protocol. Images with DAB staining were collected with brightfield microscopy and analyzed with ImageJ Macro. All data analysis and statistics were performed in GraphPad Prism 6.0.

Data set [3] deals with T3, P2Y6 receptor. As to conditions: cited from earlier work.
Data set [4] deals with PSAPP mice. Briefly: Contextual fear conditioning test (freezing behavior). The data set is classed as in vivo, mouse. How it is done: On day one, animals were trained in a fear conditioning apparatus for a total of 7 minutes with a two-pairing paradigm of cue and mild foot shock (a 30-s acoustic-conditioned stimulus, 80 dB; a 2-s shock stimulus, 0.5 mA). To evaluate contextual fear learning, the animals were returned to the training context 24 hours post-training, and freezing behavior was scored for 5 minutes. Freezing behavior was monitored by MotorMonitor (Hamilton Kinder) and scored every 5 seconds.
In this study, the fear conditioning associative learning paradigm was used as a rapid cognition assay for PSAPP mice. This study allowed us to probe cognitive function with a single training day followed in 24 hours by tests for contextual and cued fear learning. Contextual fear learning is dependent upon a brain area that has been implicated as a locus for cognitive decline in AD: the hippocampus. Two pairings of CS—US for fear conditioning were followed 24 hours later by testing for contextual and cued fear learning. Previous studies have reported that PSAPP animals appear to have a selective hippocampus-dependent impairment in associative learning following two pairings of conditioned stimuli for fear conditioning.
This represents a decrease in the cognitive impairment observed in the untreated mice.

Data set [5] has as its system PSAPP mice. Put plainly: Tolerability of a higher dose in the plaque burden study. It is filed as in vivo, mouse. The conditions noted are these: 1000× increase in dose. How it is done: as §3
For data set [6], the system named is PSAPP mice. Briefly: Two-photon in vivo imaging of methoxyX04 labeled amyloid plaques in barrel cortex. Also on record: species or system mouse. As to conditions: acute i.c.v. treatment. An excerpt: In this study, PSAPP mice were anesthetized using isoflurane and a thin-skull preparation was used to minimize the surface damage. Amyloid plaques were visualized with methoxyX04 labeling and blood plasma was labeled with Rhodamine dextran to facilitate re-localization of the same imaging area. Stack images were obtained using a two-photon system (Prairie Technologies) with excitation at 850 nm. The emission was detected by external photomultiplier tubes (525/70; DLCP 575; 607/45 nm). Animals were anesthetized and immobilized in a stereotaxic frame. For each injection, 1 μl of 10 mM UDP or other suitable compounds in artificial cerebrospinal fluid (ACSF) as the vehicle were injected intraventricularly using the following coordinates: AP 0.2 mm, ML 1 mm, and DV 2.2 mm. To evaluate the effect of UDP on plaque burden, two-photon microscopy was used to assess the amyloid plaques in the barrel cortex in living PSAPP mice. Amyloid plaques were stained by systemically administered methoxy-[…]. One day prior to imaging, PSAPP mice were injected with methoxyX04 to label the amyloid plaques. On the imaging day, to facilitate the re-location of the same imaging area, blood plasma was labeled with Rhodamine dextran. Images were obtained from the same start- and end-point to ensure the same image volume. The results were shown in a maximum intensity projection of a fluorescent stack containing 45 planes. Representative images of methoxyX04 labeled amyloid plaques and angiopathy on days 1 are shown in FIG. 1(A)-(C) Immediately after imaging, animals were injected with ACSF or UDP intracerebroventricularly (i.c.v.) and allowed to recover. On day 4, animals were subjected to a second period of imaging of the same regions studied on day 1 and the results are shown in FIG. 1(D)-(F). The similar pattern of angiopathy (shown by open arrows) indicated the same imaging area.

The test system of data set [7] is PSAPP mice. Put plainly: Postmortem immunohistochemistry of plaque load in cortex and hippocampus. It is filed as in vivo, mouse. The source holds these as a separate data set.
Data set [8] relates to PSAPP mice. Put plainly: Hippocampal long-term potentiation (LTP) recording. The data set is classed as in vivo, mouse. The conditions noted are these: acute treatment. How it is done:
Hippocampal slices (350 μm thick) were prepared from 6-month-old PSAPP mice. Baseline responses were obtained every 10 seconds and Input-output (I/O) curves, paired-pulse modification and LTP were successively measured. The stimulation intensity was set to a level that gives a value of 30% of the maximum obtained. LTP were induced by high frequency stimulation (HFS, 100 pulses at 100 Hz, four times) or by theta-burst stimulation (TBS, 10 bursts at 5 Hz, repeated 10 times in 15 s intervals).
Accumulated evidence has shown that amyloid peptides naturally secreted or isolated from Alzheimer's brains impair synaptic plasticity, especially hippocampal long-term potentiation (Walsh et al., 2002). Therefore, we further performed LTP recordings in PASPP mice and investigated whether P2Y6 receptor-mediated plaque clearance affects synaptic plasticity. […] First, it was observed that LTP at the schaffer collateral synapse within the CA1 region was depressed in PSAPP mice, as compared with littermates (FIG. 8(A)).

A short description of data set [9]: Half-life in human whole blood. The data set is classed as in vitro ADME.
The nature of another data set: Oral bioavailability. The conditions noted are these: in vivo.
Where [10] appears, read: barrel cortex, day 4 vs day 1, P<0.01.
Setting [11] is: 10 ug/kg i.p. once per day for 7 days, PS1/APP mice, cortex.

Like-named read-outs stand apart in the source and are kept apart here. A value given as a limit tells only on which side of the number the result lay.

T3 sequence (Q15077 whole entry): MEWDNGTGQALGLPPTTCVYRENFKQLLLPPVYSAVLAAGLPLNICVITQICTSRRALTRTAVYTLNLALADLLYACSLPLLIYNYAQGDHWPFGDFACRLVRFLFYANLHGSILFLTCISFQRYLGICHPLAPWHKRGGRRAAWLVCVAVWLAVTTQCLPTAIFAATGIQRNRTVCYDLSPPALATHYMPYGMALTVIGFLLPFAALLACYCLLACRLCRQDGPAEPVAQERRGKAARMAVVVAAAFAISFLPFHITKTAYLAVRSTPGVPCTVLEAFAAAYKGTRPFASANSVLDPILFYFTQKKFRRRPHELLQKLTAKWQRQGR
T1 sequence (P51582 whole entry): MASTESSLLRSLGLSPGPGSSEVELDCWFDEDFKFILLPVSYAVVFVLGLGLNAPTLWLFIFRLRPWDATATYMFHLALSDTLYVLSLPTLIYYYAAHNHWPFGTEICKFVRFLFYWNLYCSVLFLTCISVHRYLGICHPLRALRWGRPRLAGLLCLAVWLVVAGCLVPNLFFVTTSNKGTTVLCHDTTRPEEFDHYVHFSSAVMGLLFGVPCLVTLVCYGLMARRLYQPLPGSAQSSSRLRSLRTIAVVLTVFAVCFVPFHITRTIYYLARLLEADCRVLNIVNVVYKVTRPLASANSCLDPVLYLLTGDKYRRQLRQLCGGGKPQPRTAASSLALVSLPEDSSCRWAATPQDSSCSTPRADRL
T2 sequence (P41231 whole entry): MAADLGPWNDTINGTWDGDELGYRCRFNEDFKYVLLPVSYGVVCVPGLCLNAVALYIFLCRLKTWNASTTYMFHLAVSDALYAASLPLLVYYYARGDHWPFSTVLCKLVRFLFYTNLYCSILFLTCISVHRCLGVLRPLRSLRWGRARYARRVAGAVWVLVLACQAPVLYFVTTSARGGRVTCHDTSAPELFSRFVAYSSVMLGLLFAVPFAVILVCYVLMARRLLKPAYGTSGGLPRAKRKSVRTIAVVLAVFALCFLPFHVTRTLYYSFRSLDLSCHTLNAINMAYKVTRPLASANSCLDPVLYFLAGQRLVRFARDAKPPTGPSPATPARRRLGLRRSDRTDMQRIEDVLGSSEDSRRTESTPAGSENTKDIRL

As to `O=c1ccn([C@@H]2O[C@H](COP(=O)(O)OP(=O)(O)O)[C@@H](O)[C@H]2O)c(=O)n1Cc1noc2ccccc12`, the “elevating Ca2+ levels in P2Y4 receptor expressing cells” value on P2Y4 receptor is “not effective”. The “elevating Ca2+ levels in P2Y2 receptor expressing cells” value on P2Y2 receptor is recorded as “not effective”. The compound also yielded an EC50 on P2Y6 receptor [1] (1321N1 human astrocytoma cells expressing P2Y6, fluo-4 Ca2+) of 12 nM. For the same compound, the “ability to elevate Ca2+ signals in P2Y6 receptor expressing cells on addition of P2Y6 antagonist MRS2578” value at P2Y6 receptor [1] (with MRS2578) is on record as “attenuated”.
With `O=C(Cn1c(=O)ccn([C@@H]2O[C@H](COP(=O)(O)OP(=O)(O)O)[C@@H](O)[C@H]2O)c1=O)c1ccccc1` [3-phenacyl-UDP], the “effects on the efficacy endpoint at the higher dose” value in the data set with PSAPP mice [2] (1 mg/kg, one week daily) is listed as “smaller effects”. In addition, in the data set with PSAPP mice [2] (6 consecutive days i.p., then stopped for 2 weeks (6+2 weeks group), level lower than saline control), the “β1-40 staining after treatment stopped” value is “rebounded”. Also, the “immunoreactivity of β1-40 in both cortex and hippocampus” value in the data set on PSAPP mice [2] (i.p. for 4 and 6 consecutive days) is recorded as “significantly decreased”. Moreover, the “selectivity for P2Y6 receptor” value at P2Y6 receptor [3] is recorded as greater than 500 fold. Besides, the EC50 on P2Y6 receptor [3] (read-out: EC50, P2Y6 receptor agonist) was 70 nM. Moreover, the “total freezing percentage in context test” value in the data set with PSAPP mice [4] (chronic injection, two doses) was “increased”. Also, the “detrimental effects to the animal” value in the data set on PSAPP mice [5] is recorded as “did not cause detrimental effects”.
For `O=c1ccn([C@@H]2O[C@H](COP(=O)(O)OP(=O)(O)O)[C@@H](O)[C@H]2O)c(=O)[nH]1` [UDP, uridine diphosphate], the “reduction in plaque load” value with PSAPP mice [6] (setting [10]) is on record as 17.2%. In addition, in the data set on PSAPP mice [6] (setting [10]), the “reduction in the number of plaques” value is 12.6%. For the same compound, the “reduction in cross-sectional area of individual identified plaques” value in the data set with PSAPP mice [6] (second imaging session, P<0.01) was determined as 18.2%. Further, the “decrease in plaque load, cortex” value was found to be 60% with PSAPP mice [2] (β1-40 antibody staining, cortex, acute i.c.v., p<0.05) and 48% in the data set on PSAPP mice [2] (β1-42 antibody staining, cortex, acute i.c.v., P<0.01). In addition, the “decrease in plaque load, hippocampus” value in the data set on PSAPP mice [2] (β1-40 antibody staining, hippocampus, acute i.c.v., p<0.01) is on record as 62%; in the data set with PSAPP mice [7] (β1-42 antibody staining, hippocampus, acute i.c.v., P<0.05), 47%. For the same compound, in the data set with PSAPP mice [4] (acute i.c.v. treatment, ACSF control 18%±3%), the total freezing percentage was 49%±5%. Moreover, the “LTP at CA1 of hippocampus compared with ACSF” value with PSAPP mice [8] (HFS) is reported as “significantly increased”. Besides, the “field excitatory postsynaptic potential (fEPSP), last 15 min potentiation” value in the data set with PSAPP mice [8] (comparable to littermates) is reported as “significant increase”.
With `O=c1ccn([C@@H]2O[C@H](CO)[C@H](O)C2O)c(=O)n1Cc1noc2ccccc12` (some centres unmarked) [compound 5], the half-life in data set [9] came to 16.4 h. Also, the “size distribution of remaining plaques” value with PSAPP mice [2] (10 ug/kg i.p. once per day for 7 days, PS1/APP mice) is recorded as “significantly reduced”. The Aβ42 plaque burden entry with PSAPP mice [2] (setting [11]) is “significantly reduced”. Moreover, the Aβ40 plaque burden entry with PSAPP mice [7] (setting [11]) is “significantly reduced”. This compound also had a bioavailability in “Oral bioavailability” of 72.2%.

Broadly, the EC50 is the concentration needed to bring the measured effect to its halfway point. For orientation: half-life means the time in which the quantity being followed falls by half. A low value points to rapid decline. A word on the bioavailability: it is dose-corrected exposure relative to a reference, in per cent. A lower bioavailability goes with little systemic uptake.

The record behind these values is patent US10138265B2, “Uridine nucleoside derivatives, compositions and methods of use” (Tufts University, priority 2013, dated 2018).
